Bounds are passed on as bounds.

As a reminder, the IC50 is the concentration that gives 50% inhibition. Read a low IC50 as greater potency in that assay.

For this test, the target named is T1, human IAP (Homo sapiens, UniProt P09923).
T1 construct: made in house; host or cells: COS-1 cells, transient expression from pCMV-Script; conditioned serum-free medium used as enzyme stock
T1 sequence (P09923 20-503 limits assumed): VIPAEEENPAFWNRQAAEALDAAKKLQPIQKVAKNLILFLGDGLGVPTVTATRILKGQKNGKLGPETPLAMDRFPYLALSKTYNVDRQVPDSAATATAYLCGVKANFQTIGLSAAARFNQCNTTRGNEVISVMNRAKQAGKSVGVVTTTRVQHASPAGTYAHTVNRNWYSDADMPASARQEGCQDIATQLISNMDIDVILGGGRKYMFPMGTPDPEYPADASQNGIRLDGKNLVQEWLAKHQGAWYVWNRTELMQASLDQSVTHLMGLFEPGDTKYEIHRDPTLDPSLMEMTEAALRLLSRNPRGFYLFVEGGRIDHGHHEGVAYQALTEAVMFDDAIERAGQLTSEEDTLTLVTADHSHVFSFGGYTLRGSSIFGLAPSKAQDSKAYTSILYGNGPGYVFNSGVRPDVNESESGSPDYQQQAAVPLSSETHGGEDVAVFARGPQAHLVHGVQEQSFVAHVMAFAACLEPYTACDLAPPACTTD
Briefly: IAP assay using CDP-Star (chemiluminescent, dose response). The class given is biochemical. The following applies: IAP modulators, Tables A-H, positive = inhibitor; for n (Hill coefficient): negative = activator; for IC50: negative Hill coefficient = activator. The source says:
An expression vector pCMV-Script containing cDNA for human IAP, TNAP, PLAP, GCAP, mouse TNAP, dIAP, EAP or gIAP in secreted form (FLAG-tagged) is transfected into COS-1 cells for transient expression using a standard electroporation method. The GPI anchoring site is replaced by a FLAG sequence to make the proteins secreted into the media as well as to test their kinetics in a form immobilized by anti-FLAG antibody (Narisawa, et al, 2007). Medium is changed to serum free medium Opti-MEM (Invitrogen) 24 h later, and media containing secreted proteins was collected 66 hr after electroporation. Conditioned medium filtered by a 2 μm cellulose acetate membrane is supplemented with 0.1% BSA, aliquotted and stored at −80° C.
Human IAP is produced on a large scale to be used in the primary high throughput screening. For a maximum of 200,000 wells including a blank and negative control in each plate, approximately 1600 ml of the recombinant human IAP working solution (8 μl/well×200,000) is used. The working solution is a 1:80 dilution of the stock solution that has AP activity showing ΔOD405 (velocity) ˜300 in 5 min pNPP calorimetric assay. Therefore a minimum of 20 ml of the stock solution (1600÷80) is needed. An enzyme stock is prepared from ten 15 cm φ plates of COS-1 cells using 100 μg plasmid DNA [ten plates×(10 μg DNA/1×10^7 cells per 15 cm φ plate)].
Compound aliquots (4 μL at […] in 10% DMSO) are added to 8 μL of human IAP working solution of a the human IAP stock solution diluted 1:80 in assay buffer (250 mM DEA, pH 9.8, −2.5 mM MgCl2, −0.05 μM ZnCl2). The solution of substrate CDP-Star, disodium 2-chloro-5-(4-methoxyspiro{1,2-dioxetane-3,2′(5′-chloro)-tricyclo[3.3.1.1]3,7 decan}-4-yl)-1-phenyl phosphate (New England Biolabs), (8 μL of 125 μM in water) is added to each well. […] Dispensing of human IAP working solution and CDP-Star is processed using a WellMate bulk dispenser (Matrix). Plates (white 384-well small volume Greiner 784075) are incubated at room temperature for 30 min, and the luminescence signal is measured using a PerkinElmer EnVision multi-mode plate reader. L-Phenylalanine (1 mM final concentration) and 2% DMSO is utilized as an inhibition control and blank, respectively. Data analysis is processed using CBIS software (ChemInnovations, Inc).
The compound is diluted ([…] to 0.03 mM) and incubated with the human IAP enzyme for 30 min prior to addition of substrate. At the same time, human TNAP, human PLAP, human GCAP, mouse TNAP, mouse dIAP, mouse EAP and mouse gIAP is tested to determine enzyme specificity.

For `CC(C)c1ccc(-c2cc(C(=O)O)[nH]n2)cc1` [Compound B3, 3-(4-isopropylphenyl)-1H-pyrazole-5-carboxylic acid], the “n (Hill coefficient)” value is −4.38 and half-maximal inhibition (IC50) was put at 98.3 µM.
As for `Cc1c(-c2ccccc2)n[nH]c1C(=O)O` [Compound D3, 4-methyl-5-phenyl-1H-pyrazole-3-carboxylic acid], the IC50 was > 100 µM.
Regarding `CCOC(=O)c1cc(-c2cccc(C(F)(F)F)c2)[nH]n1` [Compound A6, ethyl 5-[3-(trifluoromethyl)phenyl]-1H-pyrazole-3-carboxylate], the “n (Hill coefficient)” value is −1.45 and the concentration for half-maximal inhibition (IC50) is 45.4 µM.
`O=C1C2CC=CCC2C(=O)N1c1nc(CCc2ccccc2)n[nH]1` (centres unmarked) [Compound F9, 2-(3-phenethyl-1H-1,2,4-triazol-5-yl)-3a,4,7,7a-tetrahydro-1H-isoindole-1,3(2H)-dione]: the “n (Hill coefficient)” value stood at 0.616 and it took 0.724 µM to reach half-maximal inhibition (IC50).
Turning to `COc1ccc(Br)cc1S(=O)(=O)Nc1cnc2ccccc2c1` [Compound G1, 5-bromo-2-methoxy-N-(quinolin-3-yl)benzenesulfonamide], the “n (Hill coefficient)” value turned out to be 0.716.
With `Cc1cc(O)oc2nnc(-c3ccccc3)c1-2` [Compound E6, 4-methyl-3-phenylpyrano[2,3-c]pyrazol-6-ol], the “n (Hill coefficient)” value is reported as −5 and the IC50 was 62.7 µM.
On to `CCCCOc1ccc(-c2cc(C(=O)OC)[nH]n2)cc1` [Compound B15, methyl 3-(4-butoxyphenyl)-1H-pyrazole-5-carboxylate], for which the 50% inhibitory concentration (IC50) is > 100 µM.
The same measure, in the same setting: the result for `Cc1ccc(Cl)c(N2C(=O)C(Cl)C(N3CCN(C)CC3)C2=O)c1Cl` (centres unmarked) [Compound H5, 3-chloro-1-(2,6-dichloro-3-methylphenyl)-4-(4-methylpiperazin-1-yl)pyrrolidine-2,5-dione] reads > 100 µM.
`O=C1C2CC=CCC2C(=O)N1c1ncn[nH]1` (centres unmarked) [Compound F4, 2-(1H-1,2,4-triazol-5-yl)-3a,4,7,7a-tetrahydro-1H-isoindole-1,3(2H)-dione]: the “n (Hill coefficient)” value is listed as −1.61 and half-maximal inhibition (IC50) was put at 34.5 µM.
Turning to `Cn1nc(C(=O)O)cc1-c1ccc(F)cc1` [Compound D2, 5-(4-fluorophenyl)-1-methyl 1H-pyrazole-3 carboxylic acid], the half-maximal inhibitory concentration (IC50) is > 100 µM.
Regarding `O=C(O)c1[nH]nc2c1COc1ccccc1-2` [Compound E1, 2,4-dihydrochromeno[3,4-c]pyrazole-3-carboxylic acid], the “n (Hill coefficient)” value was 0.533 and the concentration for half-maximal inhibition (IC50) is 13.9 µM.
Regarding `Cc1ccccc1S(=O)(=O)Nc1cc2ccccc2nc1Cl` [Compound G6, N-(2-chloroquinolin-3-yl)-2-methylbenzenesulfonamide], the half-maximal inhibitory concentration (IC50) is > 100 µM.
For the compound `CCOC(=O)c1cc(-c2ccc(Cl)cc2)n[nH]1` [Compound B17, ethyl 3-(4-chlorophenyl)-1H-pyrazole-5-carboxylate], the IC50 is > 100 µM.
Take `O=C1c2ccccc2C(=O)N1c1nc(Cc2ccccc2)n[nH]1` [Compound F11, 2-(3-benzyl-1H-1,2,4-triazol-5-yl)isoindoline-1,3-dione]: the “n (Hill coefficient)” value was 0.5445.
`CCOc1ccc(Cl)cc1S(=O)(=O)Nc1cccnc1` [Compound G3, 5-chloro-2-ethoxy-N-(pyridin-3-yl)benzenesulfonamide]: the concentration for half-maximal inhibition (IC50) is > 100 µM.
In the case of `COc1ccc(-c2nnc3oc(O)cc(C)c2-3)cc1` [Compound E5, 3-(4-methoxyphenyl)-4-methylpyrano[2,3-c]prazol-6-ol], the “n (Hill coefficient)” value is on record as −1.89 and the midpoint of inhibition, the IC50, lay at 21.1 µM.
Consider `Cn1nc(-c2ccc(F)cc2)cc1C(=O)O` [Compound D1, 3-(4-fluorophenyl)-1-methyl 1H-pyrazole-5 carboxylic acid], for which the IC50 is > 100 µM.
As to `O=C(O)c1cc(-c2ccc(Cl)cc2)n[nH]1` [Compound A2, 5-(4-chlorophenyl)-1H-pyrazole-3-carboxylic acid], the half-inhibitory concentration (IC50) is > 100 µM.
For `CC(OC(=O)c1cc(-c2ccc(Br)cc2)[nH]n1)C(=O)NC(C)(C)C` (stereo not drawn) [Compound A13, 1-(tert-butylamino)-l-oxopropan-2-yl 5-(4-bromophenyl)-1H-pyrazole-3-carboxylate], the “n (Hill coefficient)” value is −1 and the half-inhibitory concentration (IC50) is 93.4 µM.
`O=C(O)c1cc(-c2ccc(F)cc2)n[nH]1` [Compound B4, 3-(4-fluorophenyl)-1H-pyrazole-5-carboxylic acid]: the half-maximal inhibitory concentration (IC50) was > 100 µM.
As to `COc1ccc(-c2n[nH]c3oc(=O)cc(C)c23)cc1` [Compound E4, 3-(4-methoxyphenyl)-4-methylpyrano[2,3-c]pyrazol-6(1H)-one], the “n (Hill coefficient)” value is recorded as −1.49 and the IC50 amounted to 23.7 µM.
For the compound `O=C1C2C3C=CC(C3)C2C(=O)N1c1nc(CCc2ccccc2)n[nH]1` (centres unmarked) [Compound F10], the “n (Hill coefficient)” value is recorded as 0.871.
Regarding `COC(=O)c1cc(-c2ccc(Br)cc2)n[nH]1` [Compound A7, methyl 5-(4-bromophenyl)-1H-pyrazole-3-carboxylate], the IC50 is > 100 µM.
Same read-out and setting: the result for `O=C(CSc1nnc[nH]1)NCCOc1ccccc1` [Compound H1, 2-(4H-1,2,4-triazol-3-ylthio)-N-(2-phenoxyethyl)acetamide] reads > 100 µM.
Turning to `CC(C)(C)C(=O)COC(=O)c1cc(-c2ccc(Br)cc2)[nH]n1` [Compound A12, 3,3-dimethyl-2-oxobutyl 5-(4-bromophenyl)-1H-pyrazole-3-carboxylate], the “n (Hill coefficient)” value was −1.09 and 42.8 µM corresponded to half-maximal inhibition (IC50).
Turning to `CN(C(=O)COC(=O)c1cc(-c2ccc(Br)cc2)[nH]n1)C1CCCCC1` [Compound A11, 2-[cyclohexyl(methyl)amino]-2-oxoethyl 5-(4-bromophenyl)-1H-pyrazole-3-carboxylate], the IC50 is > 100 µM.
As to `O=C1C2CCCCC2C(=O)N1c1nc(Cc2ccccc2)n[nH]1` (centres unmarked) [Compound F2, 2-(3-benzyl-1H-1,2,4-triazol-5-yl)-hexahydro-1H-isoindole-1,3(2H)-dione], the “n (Hill coefficient)” value stood at 1.01 and half-maximal inhibition (IC50) required 0.0613 µM.
Turning to `Nc1nc(N2C(=O)C3CC=CCC3C2=O)nn1-c1ccccc1` (centres unmarked) [Compound F12, 2-(5-amino-1-phenyl-1H-1,2,4-triazol-3-yl)-3a,4,7,7a-tetrahydro-1H-isoindole-1,3(2H)-dione], the IC50 was > 100 µM.
As for `O=C(O)c1cc(-c2ccc(O)cc2)n[nH]1` [Compound B1, 3-(4-hydroxyphenyl)-1H-pyrazole-5-carboxylic acid], the “n (Hill coefficient)” value is on record as 1.1 and the 50% inhibitory concentration (IC50) was found to be 79.2 µM.
On the same counts, the results for `O=C1C2CC=CCC2C(=O)N1c1nc(Cc2ccccc2)n[nH]1` (centres unmarked) [Compound F8, 2-(3-benzyl-1H-1,2,4-triazol-5-yl)-3a,4,7,7a-tetrahydro-1H-isoindole-1,3(2H)-dione] are 1.28 and 0.503 µM.
For the compound `O=C1C2CC=CCC2C(=O)N1c1nc(-c2ccccc2)n[nH]1` (centres unmarked) [Compound F5, 2-(3-phenyl-1H-1,2,4-triazol-5-yl)-3a,4,7,7a-tetrahydro-1H-isoindole-1,3(2H)-dione], the “n (Hill coefficient)” value was determined as 0.8895 and the concentration for half-maximal inhibition (IC50) is 0.0625 µM.
For `Nc1ccc(-c2cc(C(=O)O)n[nH]2)cc1` [Compound A5, 5-(4-aminophenyl)-1H-pyrazole-3-carboxylic acid], the half-maximal inhibitory concentration (IC50) was > 100 µM.
As to `O=C(O)c1cc(-c2ccccc2Cl)[nH]n1` [Compound A1, 5-(2-chlorophenyl)-1H-pyrazole-3-carboxylic acid], the “n (Hill coefficient)” value came out at 0.9625.

Source of the values: patent US20100016313A1, “INTESTINAL ALKALINE PHOSPHATASE MODULATORS AND USES THEREOF” (Burnham Institute for Medical Research, priority 2008, published 2010).
